Laboratory results published in patent publication US20090175882A1, “METHODS AND COMPOSITIONS FOR TREATING HYPERALGESIA” (IRM LLC, priority 2006, published 2009).
Entries after “also recorded” stand apart in the source; their conditions may differ.

What was measured:
[1] = tested on: acute heat or pressure to the paw; assay: Nociceptive responses to acute heat or pressure to the paw; type: in vivo; settings: data not shown
[2] = tested on: CFA-induced heat hyperalgesia; assay: CFA-induced heat hyperalgesia; type: in vivo; settings: mice
Procedure: (§1) Red symbols represent responses from CFA-injected (A), or BK-injected (B) hindpaws while blue symbols represent responses from the other noninjected hindpaws of the same animals. Circles represent responses upon compound 18 treatment, whereas triangles represent responses upon vehicle treatments (A-C). Von Frey thresholds are measured and averaged. (***p<0.001, *p<0.05, two-tailed Student's T-test). […] Red symbols represent responses from CFA-injected hindpaws while blue symbols represent responses from the other non-injected hindpaws of the same animals. Number of flicks, licks, paw raises for 10 min at each time point are counted and averaged (n=8, *p<0.05, two-tailed Student's T-test).
(§2) Behavioral assays: Mice (C57B16 Mus musculus) of 8-10 weeks in age and 150-250 g Sprague Dawley rats were used for all behavioral assays. Animals were acclimated for 20-60 min to their testing environment prior to all experiments. Students' T test was used for all statistical calculations. All error bars represent standard error of the mean (SEM). Thermal plates, Hargreaves method (Plantar Analgesia meter) and Von Frey apparatus (Dynamic Plantar Aesthesiometer) were from UGO Basile and Columbus instruments. […] Briefly, mice were acclimated for 60 min to their testing environment prior to all experiments. Baseline responses were measured first and then 10 nM BK was injected to the skin of left hindpaws. Von Frey threshold or paw withdrawal latency was measured at 5, 15 and 30 min post injection. 1 mM of compound 18 was sometimes coinjected to left hindpaws to test its analgesic effect. For CFA-induced hyperalgesia test, 5 μg CFA in 10 uL was injected into mice (Caterina et al., Science 288:306, 2000; and Cao et al., Nature 392:390, 1998) and 50 μg in 100 uL (1:1 emulsion of mineral oil and saline; Obata et al., J Clin Invest 115:2393, 2005) was injected into rats and in 24 hrs measurements were performed. Before the measurement, the animals were re-acclimated to the environment for 20-60 min. […]

[3] = tested on: CFA-induced mechanical hyperalgesia; assay: CFA-induced mechanical hyperalgesia (Von Frey threshold); type: in vivo; settings: injected into hindpaw 24 hours after CFA, mice
Procedure: as §1, §2

[4] = biological target: T1, mouse TRPA1 (Mus musculus, UniProt Q8BLA8); assay: FLIPR calcium-influx assay, block of cinnamaldehyde activation, CHO cells; type: cell-based; settings: elicited by 50 μM cinnamaldehyde, CHO cells
T1 construct: expressed in transfected cells; host or cells: CHO cells (tetracycline-induced for PatchXpress; mTRPA1-pcDNA5 named for the transient labelling experiment)
Procedure: (§3) Calcium influx was measured using a standard FLIPR assay, data points are the average of 4 wells (˜8,000 cells/well) and error bars show standard error. […] Data was generated using the FLIPR calcium-influx assay, n=3 wells (˜8,000 cells/well) and normalized to the maximal response. Bars show standard error and solid curves are hill equation fits from which EC50 values are derived.
(§4) Using FLIPR calcium-influx assay, we screened 43,648 small molecules for their ability to block cinnamaldehyde-activation of human TRPA1 in a CHO cell line.
(§5) FLIPR Screen: CHO cells expressing human TRPA1 were plated into 384 well plates at a concentration of ˜8,000 cells/well. Cells were transferred to phosphate-buffered saline (PBS) and loaded with the calcium sensitive dye FLUO-4 using the FLIPR Calcium 3 Assay Kit (Molecular Devices, Sunnyvale, Calif.) 1 hour prior to the assay. Assays were run using the FLIPR2 (Molecular Devices, Sunnyvale, Calif.). All compounds were diluted into PBS from a high concentration DMSO-based stock solution and added during data collection with the FLIPR2 internal pipette head. Final DMSO concentrations never exceeded 0.5%.

[5] = tested on: TRPV1, TRPV2, TRPV3, TRPV4, or TRPM8; assay: Effect on other thermoTRPs (summary statement); type: cell-based
Source text: TRPA1 inhibitors that can be employed in the practice of the present invention include compounds that interferes with the expression, modification, regulation or activation of TRPA1, or compounds that down-regulates one or more of the normal biological activities of TRPA1 (e.g., its ion channel). […] Various TRPA1-specific antagonists can be used in the instant invention. Some of these TRPA1-specific inhibitors are identified by the present inventors, as described in the Examples below. These compounds can be obtained commercially or are otherwise described in the art. One such compound is Compound 18, (Z)-4-(4-chlorophynyl)-3-methylbut-3-en-2-oxime. This compound can be obtained commercially from Maybridge (Cornwall, UK). Another example is Compound 40, N,N′-Bis-(2-hydroxybenzyl)-2,5-diamino-2,5-dimethylhexane, which has been described in U.S. Pat. No. 4,129,556. […] Thus, these two compounds can be readily used to treat or alleviate mechanical hyperalgesia as described in more detail below.

[6] = biological target: T2, TRPV3 (Mus musculus, UniProt Q8K424); assay: ThermoTRP selectivity test; type: cell-based; settings: at 50 μM (data not shown)
T2 construct: expressed in transfected cells; not restated for the selectivity test
T2 sequence (Q8K424 1-791): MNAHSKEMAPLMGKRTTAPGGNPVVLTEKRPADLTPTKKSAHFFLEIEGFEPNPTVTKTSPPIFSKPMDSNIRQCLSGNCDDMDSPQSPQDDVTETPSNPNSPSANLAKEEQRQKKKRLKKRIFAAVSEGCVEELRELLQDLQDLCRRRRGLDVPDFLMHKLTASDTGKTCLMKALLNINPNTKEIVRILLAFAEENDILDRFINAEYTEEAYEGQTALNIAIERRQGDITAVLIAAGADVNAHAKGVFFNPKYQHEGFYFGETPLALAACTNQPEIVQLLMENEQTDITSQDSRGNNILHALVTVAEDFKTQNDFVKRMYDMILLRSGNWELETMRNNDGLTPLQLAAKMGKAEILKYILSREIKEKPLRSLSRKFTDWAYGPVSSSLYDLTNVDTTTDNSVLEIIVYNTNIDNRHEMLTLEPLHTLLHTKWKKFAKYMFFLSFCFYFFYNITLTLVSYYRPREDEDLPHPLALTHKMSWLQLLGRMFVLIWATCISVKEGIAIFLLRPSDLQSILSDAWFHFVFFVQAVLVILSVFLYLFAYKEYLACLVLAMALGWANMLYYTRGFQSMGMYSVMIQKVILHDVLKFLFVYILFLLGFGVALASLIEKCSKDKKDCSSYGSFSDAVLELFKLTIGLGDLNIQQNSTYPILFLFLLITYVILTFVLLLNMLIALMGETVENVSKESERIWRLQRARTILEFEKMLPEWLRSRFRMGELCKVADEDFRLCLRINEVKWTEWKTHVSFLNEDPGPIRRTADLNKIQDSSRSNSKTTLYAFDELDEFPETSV

[7] = biological target: T3, TRPV4 (Rattus norvegicus, UniProt Q9ERZ8); assay: ThermoTRP selectivity test; type: cell-based; settings: at 50 μM (data not shown)
T3 construct: expressed in transfected cells; not restated for the selectivity test

[8] = Behavioral response to the compound alone in hindpaw; type: in vivo; settings: 1-10 mM in hindpaw of mice (data not shown)
[9] = biological target: TRPA1 (Homo sapiens, UniProt O75762); assay: FLIPR calcium-influx assay, block of cinnamaldehyde activation, CHO cells; type: cell-based; set-up: expressed in transfected cells; settings: elicited by 50 μM cinnamaldehyde
TRPA1, sequence (O75762 whole entry): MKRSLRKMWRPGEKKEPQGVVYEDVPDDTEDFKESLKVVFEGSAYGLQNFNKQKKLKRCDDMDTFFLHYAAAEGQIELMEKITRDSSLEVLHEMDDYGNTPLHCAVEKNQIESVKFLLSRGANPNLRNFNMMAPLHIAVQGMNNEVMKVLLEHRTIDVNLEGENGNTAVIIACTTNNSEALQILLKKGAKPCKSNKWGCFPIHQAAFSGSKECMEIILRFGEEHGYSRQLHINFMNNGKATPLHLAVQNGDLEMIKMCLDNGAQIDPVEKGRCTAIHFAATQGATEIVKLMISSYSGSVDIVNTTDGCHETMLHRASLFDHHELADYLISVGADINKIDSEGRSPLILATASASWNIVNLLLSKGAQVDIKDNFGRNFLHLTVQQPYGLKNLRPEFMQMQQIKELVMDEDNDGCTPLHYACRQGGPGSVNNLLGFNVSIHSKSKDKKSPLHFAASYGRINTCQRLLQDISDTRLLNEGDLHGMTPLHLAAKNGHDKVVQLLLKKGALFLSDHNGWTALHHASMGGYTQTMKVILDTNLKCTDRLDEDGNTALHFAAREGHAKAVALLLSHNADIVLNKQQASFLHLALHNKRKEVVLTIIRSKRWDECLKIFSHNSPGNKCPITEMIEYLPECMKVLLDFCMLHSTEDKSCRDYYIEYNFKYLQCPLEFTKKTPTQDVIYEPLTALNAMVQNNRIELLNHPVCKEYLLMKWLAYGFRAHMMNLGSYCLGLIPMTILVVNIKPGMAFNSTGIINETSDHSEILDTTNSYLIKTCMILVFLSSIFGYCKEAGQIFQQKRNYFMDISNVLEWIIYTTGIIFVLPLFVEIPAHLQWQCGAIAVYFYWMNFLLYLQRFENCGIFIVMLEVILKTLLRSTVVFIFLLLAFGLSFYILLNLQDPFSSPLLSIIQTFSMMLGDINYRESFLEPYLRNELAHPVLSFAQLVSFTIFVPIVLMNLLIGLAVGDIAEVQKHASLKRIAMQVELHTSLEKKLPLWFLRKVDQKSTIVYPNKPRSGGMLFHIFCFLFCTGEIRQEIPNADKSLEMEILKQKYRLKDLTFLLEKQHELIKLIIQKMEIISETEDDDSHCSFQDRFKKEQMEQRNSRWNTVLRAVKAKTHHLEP
Procedure: as §3, §4, §5

T3 sequence (Q9ERZ8 whole entry): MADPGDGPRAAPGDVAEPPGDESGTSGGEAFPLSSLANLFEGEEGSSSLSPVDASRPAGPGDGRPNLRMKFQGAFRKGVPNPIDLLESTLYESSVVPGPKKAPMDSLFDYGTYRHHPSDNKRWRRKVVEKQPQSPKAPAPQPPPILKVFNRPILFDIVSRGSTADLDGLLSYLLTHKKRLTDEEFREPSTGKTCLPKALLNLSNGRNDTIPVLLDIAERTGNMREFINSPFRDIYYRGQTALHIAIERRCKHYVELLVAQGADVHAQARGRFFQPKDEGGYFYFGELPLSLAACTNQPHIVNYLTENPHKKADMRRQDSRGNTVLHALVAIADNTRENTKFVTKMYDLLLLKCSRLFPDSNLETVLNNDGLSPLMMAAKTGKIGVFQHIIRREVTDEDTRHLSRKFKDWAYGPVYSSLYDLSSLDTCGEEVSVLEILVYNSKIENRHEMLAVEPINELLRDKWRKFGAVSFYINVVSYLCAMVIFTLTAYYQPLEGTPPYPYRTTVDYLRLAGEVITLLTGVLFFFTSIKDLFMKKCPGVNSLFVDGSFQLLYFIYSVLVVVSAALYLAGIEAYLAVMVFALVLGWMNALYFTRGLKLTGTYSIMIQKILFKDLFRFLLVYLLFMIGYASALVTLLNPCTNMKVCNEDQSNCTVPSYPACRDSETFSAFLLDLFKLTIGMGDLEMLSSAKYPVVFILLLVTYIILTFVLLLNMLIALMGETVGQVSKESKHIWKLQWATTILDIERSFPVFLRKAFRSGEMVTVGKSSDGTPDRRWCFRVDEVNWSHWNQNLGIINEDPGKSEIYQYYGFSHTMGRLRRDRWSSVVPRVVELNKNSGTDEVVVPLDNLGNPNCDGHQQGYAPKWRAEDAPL
T1 sequence (Q8BLA8 whole entry): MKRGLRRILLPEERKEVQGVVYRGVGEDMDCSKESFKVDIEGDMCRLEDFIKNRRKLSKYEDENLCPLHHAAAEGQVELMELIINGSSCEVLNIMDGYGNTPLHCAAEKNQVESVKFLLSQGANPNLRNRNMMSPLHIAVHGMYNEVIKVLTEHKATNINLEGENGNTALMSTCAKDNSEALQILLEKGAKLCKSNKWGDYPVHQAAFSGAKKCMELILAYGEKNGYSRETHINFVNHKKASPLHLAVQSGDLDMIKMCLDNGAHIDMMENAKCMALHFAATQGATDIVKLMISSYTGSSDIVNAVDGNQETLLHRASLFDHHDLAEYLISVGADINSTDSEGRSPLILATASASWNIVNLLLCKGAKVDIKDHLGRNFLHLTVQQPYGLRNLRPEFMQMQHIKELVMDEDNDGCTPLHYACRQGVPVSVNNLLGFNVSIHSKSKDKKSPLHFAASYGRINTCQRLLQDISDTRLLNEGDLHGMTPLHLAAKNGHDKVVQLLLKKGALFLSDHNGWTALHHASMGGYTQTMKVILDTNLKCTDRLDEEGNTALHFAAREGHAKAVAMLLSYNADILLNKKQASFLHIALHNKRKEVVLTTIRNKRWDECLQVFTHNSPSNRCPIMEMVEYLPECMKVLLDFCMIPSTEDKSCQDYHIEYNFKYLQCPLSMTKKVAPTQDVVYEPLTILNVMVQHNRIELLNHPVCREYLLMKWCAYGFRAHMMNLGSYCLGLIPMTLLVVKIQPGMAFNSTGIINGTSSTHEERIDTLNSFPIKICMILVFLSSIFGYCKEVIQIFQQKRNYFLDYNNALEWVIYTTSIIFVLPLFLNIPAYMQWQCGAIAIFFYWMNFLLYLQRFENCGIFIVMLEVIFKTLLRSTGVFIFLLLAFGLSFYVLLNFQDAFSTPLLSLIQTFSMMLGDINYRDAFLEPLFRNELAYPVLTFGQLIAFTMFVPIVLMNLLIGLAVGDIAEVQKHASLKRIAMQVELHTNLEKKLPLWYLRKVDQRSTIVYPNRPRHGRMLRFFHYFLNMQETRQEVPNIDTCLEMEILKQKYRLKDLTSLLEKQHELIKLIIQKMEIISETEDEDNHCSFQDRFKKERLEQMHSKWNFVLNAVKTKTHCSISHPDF

CC(=Cc1ccc(Cl)cc1)C(C)=NO [Compound 18, (Z)-4-(4-chlorophynyl)-3-methylbut-3-en-2-oxime]
nociceptive responses to acute heat to the paw [1]: not affected | nociceptive responses to acute pressure to the paw [1]: not affected | CFA-induced heat hyperalgesia [2]: not thermal (heat) behaviours; also recorded: did not block | CFA-induced mechanical hyperalgesia [3]: reverses; also recorded: relieved | IC50 [4]: 4.5 µM | effect on activation or activities of the other thermoTRPs [5]: little or no effect | block of TRPV3 [6]: did not block | block of TRPV4 [7]: did not block | behavioral response to the compound alone [8]: did not cause any behavioral response | IC50 [9]: 3.1 µM
